Assay results: ChEMBL document CHEMBL4419163, “Assays for identifying compounds that modulate bitter taste” (2014)

How the values were obtained:
Assay type in all cases: functional, cell-based
[1] = biological target: T1, Taste receptor type 2 member 43 (Homo sapiens) (UniProt P59537); experiment: Agonist activity at human TAS2R43 expressed in HEK293T cells co-expressing Galpha15 assessed as increase in intracellular calcium level at 20 mM by Calcium-3 dye based fluorescence assay relative to control
T1 sequence (whole entry): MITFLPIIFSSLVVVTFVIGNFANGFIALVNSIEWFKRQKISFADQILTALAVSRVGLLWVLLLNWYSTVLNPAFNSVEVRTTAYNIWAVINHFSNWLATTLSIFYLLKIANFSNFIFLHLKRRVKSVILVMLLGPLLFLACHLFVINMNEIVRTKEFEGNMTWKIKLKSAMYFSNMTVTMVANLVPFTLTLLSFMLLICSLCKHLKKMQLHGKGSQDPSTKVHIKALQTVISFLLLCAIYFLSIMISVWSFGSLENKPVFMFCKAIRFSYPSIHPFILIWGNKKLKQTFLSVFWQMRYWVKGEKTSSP

[2] = biological target: T2, Taste receptor type 2 member 45 (Homo sapiens) (UniProt P59539); experiment: Agonist activity at human TAS2R45 expressed in HEK293T cells co-expressing Galpha15 assessed as increase in intracellular calcium level at 20 mM by Calcium-3 dye based fluorescence assay relative to control
T2 sequence (whole entry): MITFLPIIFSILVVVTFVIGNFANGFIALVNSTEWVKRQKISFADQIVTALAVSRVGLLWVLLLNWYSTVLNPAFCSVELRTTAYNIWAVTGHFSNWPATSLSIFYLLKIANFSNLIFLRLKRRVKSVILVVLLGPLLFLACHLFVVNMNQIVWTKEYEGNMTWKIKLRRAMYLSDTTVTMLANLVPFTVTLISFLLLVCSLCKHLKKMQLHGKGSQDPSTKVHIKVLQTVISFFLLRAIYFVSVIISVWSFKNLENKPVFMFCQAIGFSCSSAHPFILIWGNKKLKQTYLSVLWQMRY

[3] = biological target: T3, Taste receptor type 2 member 46 (Homo sapiens) (UniProt P59540); experiment: Agonist activity at human TAS2R46 expressed in HEK293T cells co-expressing Galpha15 assessed as increase in intracellular calcium level at 20 mM by Calcium-3 dye based fluorescence assay relative to control
T3 sequence (whole entry): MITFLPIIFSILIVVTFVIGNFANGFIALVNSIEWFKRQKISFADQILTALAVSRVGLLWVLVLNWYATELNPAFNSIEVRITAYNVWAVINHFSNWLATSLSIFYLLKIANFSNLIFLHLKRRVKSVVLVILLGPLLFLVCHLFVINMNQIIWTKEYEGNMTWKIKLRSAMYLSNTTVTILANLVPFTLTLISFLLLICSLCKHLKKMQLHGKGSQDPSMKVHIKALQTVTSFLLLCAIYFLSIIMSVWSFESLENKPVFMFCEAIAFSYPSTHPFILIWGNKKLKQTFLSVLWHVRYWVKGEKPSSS

[4] = biological target: T4, Taste receptor type 2 member 50 (Homo sapiens) (UniProt P59544); experiment: Agonist activity at human TAS2R50 expressed in HEK293T cells co-expressing Galpha15 assessed as increase in intracellular calcium level at 20 mM by Calcium-3 dye based fluorescence assay relative to control
T4 sequence (whole entry): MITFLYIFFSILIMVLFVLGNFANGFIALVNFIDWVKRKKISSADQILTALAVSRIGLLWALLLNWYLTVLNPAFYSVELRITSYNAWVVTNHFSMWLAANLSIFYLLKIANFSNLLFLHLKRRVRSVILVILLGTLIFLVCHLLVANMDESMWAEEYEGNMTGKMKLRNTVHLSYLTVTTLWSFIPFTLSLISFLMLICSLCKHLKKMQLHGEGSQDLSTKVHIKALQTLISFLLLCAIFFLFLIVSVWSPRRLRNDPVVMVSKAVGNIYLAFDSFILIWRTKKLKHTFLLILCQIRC

[5] = biological target: T5, Taste receptor type 2 member 31 (Homo sapiens) (UniProt P59538); experiment: Agonist activity at human TAS2R44 expressed in HEK293T cells co-expressing Galpha15 assessed as increase in intracellular calcium level at 20 mM by Calcium-3 dye based fluorescence assay relative to control
T5 sequence (whole entry): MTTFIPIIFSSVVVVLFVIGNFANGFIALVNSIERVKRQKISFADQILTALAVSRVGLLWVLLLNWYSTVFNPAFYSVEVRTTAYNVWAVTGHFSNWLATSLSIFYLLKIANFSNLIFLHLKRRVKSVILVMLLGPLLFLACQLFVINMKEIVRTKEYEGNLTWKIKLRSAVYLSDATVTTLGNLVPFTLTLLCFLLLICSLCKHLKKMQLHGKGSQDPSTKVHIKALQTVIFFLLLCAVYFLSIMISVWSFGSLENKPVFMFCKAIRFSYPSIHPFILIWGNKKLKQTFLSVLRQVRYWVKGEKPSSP

[6] = biological target: T6, Taste receptor type 2 member 19 (Homo sapiens) (UniProt P59542); experiment: Agonist activity at human TAS2R48 expressed in HEK293T cells co-expressing Galpha15 assessed as increase in intracellular calcium level at 20 mM by Calcium-3 dye based fluorescence assay relative to control
T6 sequence (whole entry): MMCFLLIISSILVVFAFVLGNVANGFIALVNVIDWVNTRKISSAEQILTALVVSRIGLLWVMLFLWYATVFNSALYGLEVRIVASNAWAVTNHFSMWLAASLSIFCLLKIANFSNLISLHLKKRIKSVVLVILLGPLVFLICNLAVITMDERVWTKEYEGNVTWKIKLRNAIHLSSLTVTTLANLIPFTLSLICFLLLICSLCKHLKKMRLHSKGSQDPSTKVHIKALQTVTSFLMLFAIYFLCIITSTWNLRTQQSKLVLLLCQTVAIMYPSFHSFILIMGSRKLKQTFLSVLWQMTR

[7] = biological target: T7, Taste receptor type 2 member 20 (Homo sapiens) (UniProt P59543); experiment: Agonist activity at human TAS2R49 expressed in HEK293T cells co-expressing Galpha15 assessed as increase in intracellular calcium level at 20 mM by Calcium-3 dye based fluorescence assay relative to control
T7 sequence (whole entry): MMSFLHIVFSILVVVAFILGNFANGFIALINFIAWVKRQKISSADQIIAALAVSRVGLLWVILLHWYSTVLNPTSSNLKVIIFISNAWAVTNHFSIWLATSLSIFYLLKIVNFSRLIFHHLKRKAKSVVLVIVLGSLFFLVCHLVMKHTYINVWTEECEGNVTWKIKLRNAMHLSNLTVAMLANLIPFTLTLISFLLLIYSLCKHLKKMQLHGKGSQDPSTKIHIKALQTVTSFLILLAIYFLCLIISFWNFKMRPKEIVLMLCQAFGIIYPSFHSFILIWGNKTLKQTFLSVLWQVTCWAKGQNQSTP

Compound	Activity [1]	Activity [2]	Activity [3]	Activity [4]	Activity [5]	Activity [6]	Activity [7]
CC(O)C(=O)[O-].[K+] (stereo unspecified)	< 40%	< 40%	> 40%	< 40%	> 40%	< 40%	< 40%
CC1=CC(=O)NS(=O)(=O)O1	< 40%	< 40%	< 40%	< 40%	> 40%	< 40%	< 40%
[Cl-].[K+] [POTASSIUM CHLORIDE]	< 40%	< 40%	< 40%	< 40%	> 40%	< 40%	< 40%
